# Values of other authors, collected in US20050042301A1, “Method of use of Xenon-133 for the treatment of AIDS, other viral and non-viral infections” (priority 2003, published 2005).
# Conditions: stable xenon; b17 says distributed in the body, b20 says formed in vitro
smiles,measurement,value
"[131Xe] [Xe-131, Xenon-131]",size range of gas microbubbles (diameter),5-10 microns
